SMILES strings stand for the structures.

Series [1] relates to HCC827 (lung adenocarcinoma, SM, exon19delE746-A750). The series is described as follows: Antiproliferative activity on HCC827 cells (Alamar Blue). The format is cell-based. The following applies: Homo sapiens, antiproliferative test. An outline of the steps: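 HCC827 cells (EGFR exon19del E746-A750), 10×10^3/well, attached 16–18 h, then exposed to compounds for 72 h at 37 °C in RPMI-1640 with 2% FBS, ≤1% DMSO. Viability by Alamar Blue fluorescence (ex 540/em 590 nm) after 3–5 h; IC50 by four-parameter logistic fit.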
On the technique in general: The colour change of resazurin is a common sign of viable cells or microbes.

A short description of series [2]: Chemical stability in simulated intestinal fluid (SIF). The conditions noted are these: SIF without enzymes, pH 6.5; 10 μm; 2 hours at 37° C.; substance amount remaining. It is filed as physicochemical. As for the experimental part: (§1) 1) Determination of chemical stability in simulated intestinal fluid, simulated gastric fluid and human blood plasma.
(§2) SGF concentrate without enzymes, pH=1,4 (Sigma Ireland, cat #01651) was used as simulated gastric fluid. Initial candidate solution (10 mM in DMSO) was diluted with a SGF working solution to a concentration of 10 μm (test solution). The test solution was incubated in a dry block thermostat for 2 hours at 37° C. SIF concentrate without enzymes, pH=6.5 (Sigma Ireland, cat #55331) was used as simulated intestinal fluid. Initial candidate solution (10 mM in DMSO) was diluted with a SIF working solution to a concentration of 10 μm (test solution). The test solution was incubated in a dry block thermostat for 2 hours at 37° C. HPLC with Agilent 1200 liquid chromatography system (Agilent, USA) was employed to determine peak areas of the compounds in test samples, said peak areas corresponding to the initial test time (prior to incubation) and the final test time (after incubation in a dry block thermostat for 2 hours at 37° C.). We used gradient elution (1 mL/min flow rate). Substance amount in % in a sample after thermostatting was determined.
(§3) The stability of the compounds was estimated.

Series [3] in a line: Enzyme stability in human liver S9 fractions. It is filed as in vitro ADME. The following applies: 0.5 mg/mL pooled human liver S9 fractions; 10 μM compound; 37° C.; pH 7.4; read-out: Stability in liver S9 fractions, Clint. An outline of the steps: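 Compound at 10 μM was incubated at 37 °C with 0.5 mg/mL pooled human liver S9, 2 mM β-NAD and 4 mM MgCl2 in 0.1 M sodium phosphate, pH 7.4, then quenched with acetonitrile and analysed chromatographically. T½ and CLint were derived from the slope of log peak area versus time.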

The subject of series [4] is A549 (lung adenocarcinoma, WT). The series is described as follows: Antiproliferative activity on A549 cells (Alamar Blue). It is filed as cell-based. The conditions noted are these: Homo sapiens, antiproliferative test. An outline of the steps:
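Cells seeded at 5*10^3/well in RPMI-1640 with 2% FBS, attached 16-18 h at 37° C, then exposed to compounds (≤1% DMSO) for 72 h. Alamar Blue added for 3-5 h; fluorescence read at 540/590 nm. IC50 from four-parameter logistic fit.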

In series [5] the target is T1, WT EGFR (Wild-Type EGFR) (Homo sapiens, UniProt P00533).
T1 construct: purchased SignalChem
Kind of series: Inhibition of WT EGFR kinase activity (ADP-Glo). It is filed as biochemical. An outline of the steps: (§4)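 Recombinant WT or double-mutant EGFR was incubated with a solution of 0.5 mg/mL peptide substrate and 50 μM ATP for 180 minutes at 37° C. Kinase activity was detected by ADP-Glo luminescence. IC50 values came from a four-parameter logistic fit.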

Series [6] deals with T2, DM EGFR (DoubleMutantEGFR, L828R/T790M) (Homo sapiens, UniProt P00533, L858R/T790M).
T2 construct: purchased SignalChem
The series is described as follows: Inhibition of DM EGFR kinase activity (ADP-Glo). The format is biochemical. The following applies: for IC50: inhibition of kinase activity, EGFR DM (L828R/T790M); for SI, IC50(WT)/IC50(DM): selectivity index, kinase EGFR WT vs EGFR DM. An outline of the steps: as §4
A general note: ADP-Glo turns the ADP formed in a reaction into a luminescent signal.

A short description of series [7]: Chemical stability in simulated gastric fluid (SGF). The format is physicochemical. The conditions noted are these: SGF without enzymes, pH 1,4; 10 μm; 2 hours at 37° C.; substance amount remaining. As for the experimental part: as §1, §2, §3

For `C=CC(=O)Nc1cc(Nc2cc(C(=O)c3ccc(N4CC(OC)C4)cc3)ccn2)c(OC)cc1N(C)CCN(C)C` (racemic) [EGFR_3365_53, N-(2-((2-(dimethylamino)ethyl)(methyl)amino)-4-methoxy-5-((4-(4-(3-methoxyazetidin-1-yl)benzoyl)pyridin-2-yl)amino)phenyl)acrylamide], the IC50 came to 26.6 nM in series [1], 8240 nM in series [4], 183 nM in series [5] and 7.31 nM in series [6]. In addition, the “Stability in SIF, %” value in series [2] is 98.8%. Moreover, in series [3], the Intrinsic clearance in human liver S9 fractions at 10 µM stood at 10.1 µL/min/mg. In addition, the “SI, IC50(WT)/IC50(DM)” value in series [6] is reported as 25.06. In series [7], the “Stability in SGF, %” value is listed as 100.0%.
For the compound `C=CC(=O)Nc1cc(Nc2nccc(C(=O)c3ccccc3C(F)(F)F)n2)c(OC)cc1N(C)CCN(C)C` [EGFR_3365, N-(2-((2-(dimethylamino)ethyl) (methyl)amino)-4-methoxy-5-((4-(2-(trifluoromethyl)benzoyl)pyrimidin-2-yl)amino)phenyl)acrylamide], the IC50 in series [1] was 14.3 nM; in series [4], more than 10000 nM; in series [5], 587 nM; in series [6], 22 nM. The “Stability in SIF, %” value in series [2] is recorded as 100.0%. In addition, the Intrinsic clearance in human liver S9 fractions at 10 µM in series [3] was 13.6 µL/min/mg. Moreover, the “SI, IC50(WT)/IC50(DM)” value in series [6] was found to be 26.69. Further, the “Stability in SGF, %” value in series [7] is 100.0%.
Consider `C=CC(=O)Nc1cc(Nc2cc(C(=O)c3ccccc3)ccn2)c(OC)cc1N(C)CCN(C)C` [EGFR_3365_3, N-(5-((4-benzoylpyridin-2-yl)amino)-2-((2-(dimethylamino)ethyl)(methyl)amino)-4-methoxyphenyl)acrylamide], for which the IC50 was determined as 2.3 nM in series [1], 6070 nM in series [4], 76.6 nM in series [5] and 14.5 nM in series [6]. Also, in series [2], the “Stability in SIF, %” value is reported as 100.0%. Also, in series [6], the “SI, IC50(WT)/IC50(DM)” value worked out at 5.29. Also, in series [7], the “Stability in SGF, %” value is reported as 100.0%.
On to `C=CC(=O)Nc1cc(Nc2cc(C(=O)c3ccc(N(C)C)cc3)ccn2)c(OC)cc1N(C)CCN(C)C.O=C(O)C(F)(F)F` [EGFR_3365_4, N-(5-((4-(4-(dimethylamino)benzoyl)pyridin-2-yl)amino)-2-((2-(dimethylamino)ethyl) (methyl)amino)-4-methoxyphenyl)acrylamide 2,2,2-trifluoroacetate], for which the IC50 was 15.3 nM in series [1], 5380 nM in series [4], 230 nM in series [5] and 21.4 nM in series [6]. Also, the “Stability in SIF, %” value in series [2] is on record as 100.0%. Also, in series [3], the Intrinsic clearance in human liver S9 fractions at 10 µM stood at 0.9 µL/min/mg. The “SI, IC50(WT)/IC50(DM)” value in series [6] is on record as 10.79. In addition, in series [7], the “Stability in SGF, %” value is given as 100.0%.
For `C=CC(=O)Nc1cc(Nc2nccc(C(=O)c3ccccc3Br)n2)c(OC)cc1N(C)CCN(C)C` [EGFR_3365_12, N-(5-((4-(2-bromobenzoyl)pyrimidin-2-yl)amino)-2-((2-(dimethylamino)ethyl) (methyl)amino)-4-methoxyphenyl)acrylamide], the IC50 was determined as 20.3 nM in series [1], 15400 nM in series [4], 389 nM in series [5] and 25.5 nM in series [6]. In series [2], the “Stability in SIF, %” value is on record as 100.0%. Also, the “SI, IC50(WT)/IC50(DM)” value in series [6] is 15.25. In addition, the “Stability in SGF, %” value in series [7] is 100.0%.
For the compound `C=CC(=O)Nc1cc(Nc2nccc(C(=O)c3ccc(OC)cc3)n2)c(OC)cc1N(C)CCN(C)C` [EGFR_3365_28, N-(2-((2-(dimethylamino)ethyl)(methyl)amino)-4-methoxy-5-((4-(4-methoxybenzoyl)pyrimidin-2-yl)amino)phenyl)acrylamide], the IC50 in series [1] stood at 15.3 nM; in series [4], 3640 nM; in series [5] it was 128 nM; in series [6] it was 6.27 nM. Moreover, the “Stability in SIF, %” value in series [2] is on record as 100.0%. Further, the “SI, IC50(WT)/IC50(DM)” value in series [6] was 20.33. The “Stability in SGF, %” value in series [7] is listed as 100.0%.
As to `C=CC(=O)Nc1cc(Nc2nccc(C(=O)c3ccc(OCC)cc3)n2)c(OC)cc1N(C)CCN(C)C` [EGFR_3365_29, N-(2-((2-(dimethylamino)ethyl)(methyl)amino)-5-((4-(4-ethoxybenzoyl)pyrimidin-2-yl)amino)-4-methoxyphenyl) acrylamide], the IC50 in series [1] is 6.2 nM; in series [4], 16000 nM; in series [5] it was 202 nM; in series [6], 10.7 nM. For the same compound, the “Stability in SIF, %” value in series [2] was 100.0%. The “SI, IC50(WT)/IC50(DM)” value in series [6] amounted to 18.79. In addition, the “Stability in SGF, %” value in series [7] was 98.1%.
`C=CC(=O)Nc1cc(Nc2nccc(C(=O)c3ccc(OC(C)C)cc3)n2)c(OC)cc1N(C)CCN(C)C` [EGFR_3365_31, N-(2-((2-(dimethylamino)ethyl)(methyl)amino)-5-((4-(4-isopropoxybenzoyl)pyrimidin-2-yl)amino)-4-methoxyphenyl) acrylamide]: the IC50 worked out at 8.3 nM in series [1], 11100 nM in series [4], 131 nM in series [5] and 8.65 nM in series [6]. Also, the “Stability in SIF, %” value in series [2] was 97.2%. Moreover, the “SI, IC50(WT)/IC50(DM)” value in series [6] is 15.12. Moreover, the “Stability in SGF, %” value in series [7] is listed as 100.0%.
With `C=CC(=O)Nc1cc(Nc2nccc(C(=O)c3ccc(N4CCCCC4)cc3)n2)c(OC)cc1N(C)CCN(C)C` [EGFR_3365_90, N-(2-((2-(dimethylamino)ethyl)(methyl)amino)-4-methoxy-5-((4-(4-(piperidin-1-yl)benzoyl)pyrimidin-2-yl)amino)phenyl)acrylamide], the IC50 was 4.39 nM in series [1], 5300 nM in series [4], 32.3 nM in series [5] and 0.75 nM in series [6]. For the same compound, the Intrinsic clearance in human liver S9 fractions at 10 µM in series [3] worked out at 23.1 µL/min/mg. In addition, in series [6], the “SI, IC50(WT)/IC50(DM)” value turned out to be 43.40.
Take `C=CC(=O)Nc1cc(Nc2nccc(C(=O)c3cc4ccccc4n3C)n2)c(OC)cc1N(C)CCN(C)C` [EGFR_3365_94, N-(2-((2-(dimethylamino)ethyl) (methyl)amino)-4-methoxy-5-((4-(1-methyl-1H-indole-2-carbonyl)pyrimidin-2-yl)amino)phenyl)acrylamide]: the IC50 in series [4] was found to be 6900 nM; in series [5], 25.4 nM; in series [6], 1.41 nM. In series [6], the “SI, IC50(WT)/IC50(DM)” value worked out at 18.02.
As for `C=CC(=O)Nc1cc(Nc2nccc(C(=O)c3ccc(OC)cc3OCCC)n2)c(OC)cc1N(C)CCN(C)C` [EGFR_3365_102, N-(2-((2-(dimethylamino)ethyl)(methyl)amino)-4-methoxy-5-((4-(4-methoxy-2-propoxybenzoyl)pyrimidin-2-yl)amino)phenyl)acrylamide], the Intrinsic clearance in human liver S9 fractions at 10 µM in series [3] was 21.9 µL/min/mg. For the same compound, the IC50 is 5570 nM in series [4], 206 nM in series [5] and 11.2 nM in series [6]. Also, the “SI, IC50(WT)/IC50(DM)” value in series [6] came to 18.40.
For the compound `C=CC(=O)Nc1cc(Nc2nccc(C(=O)c3ccc(N4CCC(N)CC4)cc3)n2)c(OC)cc1N(C)CCN(C)C` [EGFR_3365_121, N-(5-((4-(4-(4-aminopiperidin-1-yl)benzoyl)pyrimidin-2-yl)amino)-2-((2-(dimethylamino)ethyl)(methyl)amino)-4-methoxyphenyl)acrylamide], the 50% inhibitory concentration (IC50) in series [1] is 15.2 nM; in series [4], 8350 nM; in series [5] it was 21.6 nM; in series [6], 0.89 nM. Moreover, the Intrinsic clearance in human liver S9 fractions at 10 µM in series [3] came out at 1.4 µL/min/mg. Further, the “SI, IC50(WT)/IC50(DM)” value in series [6] came out at 24.30.

For orientation: IC50 means the concentration that inhibits the measured activity by half.

(Values after patent publication US20200339544A1 (JOINT STOCK COMPANY "BIOCAD", priority 2017, published 2020).)
